Assay results: US10041937B2, “Macrophage identification agent, and identification method, sorting method, evaluation method, screening method and kit using the macrophage identifier agent” (CANON KABUSHIKI KAISHA, priority 2013, dated 2018)

Key:
[1] = test system: M1 macrophages and M2 macrophages differentiated from mouse bone marrow cells; experiment: Subtype identification by staining and flow cytometry of M1 and M2 macrophages differentiated from mouse bone marrow cells; type: cell-based, Balb/c mouse; details: for difference in the staining intensity between the M1 macrophages and the M2 macrophages / identification: mouse bone marrow derived; for Selectivity: subtype strongly stained
Summary of the method: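 Balb/c mouse bone marrow cells were differentiated to macrophages with 50 ng/mL M-CSF over two 3–4-day periods, then polarized for 3 days to M1 (interferon-γ plus polyliposaccharide) or M2 (IL-4). Live cells (aqua dye-negative) were analysed by flow cytometry; resolution R = |FM1−FM2|/(WM1+WM2) from histogram peak positions and widths indexed subtype discrimination.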

[2] = test system: M1 macrophages and M2 macrophages differentiated from THP-1 cells; experiment: Identification of macrophage subtypes differentiated from human cell line THP-1; type: cell-based; details: for difference in the staining intensity between the M1 macrophages and the M2 macrophages / identification: THP-1 derived; for Resolution ratio R / Evaluation of macrophage subtype identification: M1 vs M2 macrophages differentiated from THP-1 cells; for Resolution ratio R: channel listed per compound (Table 6); for Evaluation of macrophage subtype identification: class based on resolution R (Table 6); for Peak position of M1 macrophage: THP-1-derived M1 macrophages; for Peak position of M1 macrophage / Peak position of M2 macrophage: fluorescence intensity peak by flow cytometry in the channel listed per compound (Table 6); for Peak position of M2 macrophage: THP-1-derived M2 macrophages; for Selectivity: subtype strongly stained, THP-1-derived macrophages (Table 6)
Experimental: The fluorescent signals derived from the compounds (3), (4), (6), (7), (9), (11) to (13), (15), (17), (19) to (26), (28), (30) to (33), (35), (36), (38), (42) to (45), (48) to (62), (65), (67), (74) to (76), (82), (83) and (85) and the comparative compounds (1) and (2) were measured in channels suitable to the respective compounds. Histograms were prepared by plotting fluorescence intensities obtained in the respective channels on the abscissa and plotting the numbers of cells at each fluorescence intensity on the ordinate. A difference between a fluorescence intensity (FM1) at a peak top of the histogram of the M1 macrophage and a fluorescence intensity (FM2) at a peak top of the histogram of the M2 macrophage is divided by a sum of a peak width (WM1) of the histogram of the M1 macrophage and a peak width (WM2) of the histogram of the M2 macrophage, so as to obtain a resolution R, which was used as an index of the identification ability for a subtype (see the following expression (1)). Resolution R=|FM1−FM2|/(WM1+WM2) Expression (1)
Based on the thus obtained values of the resolution R, the identification abilities for the subtypes of the compounds (3), (4), (6), (7), (9), (11) to (13), (15), (17), (19) to (26), (28), (30) to (33), (35), (36), (38), (42) to (45), (48) to (62), (65), (67), (74) to (76), (82), (83) and (85) and the comparative compounds (1) and (2) were evaluated as any of A to C according to the following criteria, and if the resolution R was 0.15 or more, the compound was determined to be good in the subtype identification.
The subtypes were identified by using the compound (1) in the same manner as in Example 1 except that the macrophage subtypes differentiated from the mouse bone marrow cells were changed to macrophage subtypes differentiated from a cell line established from human acute monocytic leukemia.
The culture of subtypes was performed with reference to NPL 10. Specifically, THP-1 cells purchased from JCRB Cell Bank of National Institute of Biomedical Innovation, that is, a cell line established from human acute monocytic leukemia, were subcultured several times, and the resultant cells were dispersed to a concentration of 5.0×10^5/mL in an RPMI1640 containing 10% FBS and 1% P/S, and 5.0×10^6 cells were seeded in a 100 mm dish. The monocytes were differentiated into macrophages by incubating the resultant in the presence of 5% CO2 at 37° C. for 2 days with 500 ng of PMA added thereto. After exchanging the medium, by adding 200 ng of interferon-γ and 1 μg of polyliposaccharide (both manufactured by Pepro Tech) to the medium, the cells were differentiated to the subtype M1. Besides, by adding 200 ng of IL-4 and IL-13, the cells were differentiated to the subtype M2. After incubation performed in the presence of 5% CO2 at 37° C. for 24 hours, the resultant was rinsed with PBS, and PBS containing 0.25% trypsin and 1 mM EDTA (ethylenediaminetetraacetic acid) was used for collecting, from the dish, the macrophages having been differentiated to the subtypes M1 and M2.
Specifically, fluorescent signals derived from the compounds (1) (3) (4) (12) and (15) were measured by using the channels which are appropriate for each of the compounds and the identification abilities for the subtypes of the compounds were evaluated based on the values of the resolution R.

[3] = test system: mixture of the M1 macrophages and the M2 macrophages; experiment: Sorting of subtypes from a mixture of M1 and M2 macrophages with an FACS apparatus; type: cell-based, mouse; details: compound 1 μM; for sorting of identified M1 and M2 macrophages: FACS apparatus; for subtype more strongly stained: mixed M1 and M2 macrophages
[4] = M1 vs M2 macrophages from mouse bone marrow cells, general formula (6) dyes (Table 7)
[5] = M1 vs M2 macrophages from mouse bone marrow cells, general formula (10) dyes (Table 8)
[6] = R=|FM1−FM2|/(WM1+WM2), compound 1 μM
[7] = class based on resolution R, general formula (6) dyes (Table 7)
[8] = class based on resolution R, general formula (10) dyes (Table 8)
[9] = fluorescence intensity at peak top of histogram, compound 1 μM, 37° C., 30 minutes
[10] = mouse bone marrow-derived M1 macrophages, channel listed per compound, general formula (6) dyes (Table 7)
[11] = mouse bone marrow-derived M1 macrophages, channel listed per compound, general formula (10) dyes (Table 8)
[12] = mouse bone marrow-derived M2 macrophages, channel listed per compound, general formula (6) dyes (Table 7)
[13] = mouse bone marrow-derived M2 macrophages, channel listed per compound, general formula (10) dyes (Table 8)

## CCC1=C(CC)c2cc3[nH]c(cc4nc(cc5[nH]c(cc1n2)c(CC)c5CC)C(CC)=C4CC)c(CC)c3CC [(1), reference compound]
[1]; [4]
  Resolution ratio R: 0.006
[1]; [5]
  Resolution ratio R: 0.006
[1]; M1 vs M2 macrophages from mouse bone marrow cells, general formula (11) dyes (Table 9)
  Resolution ratio R: 0.006
[1]; [6]
  Resolution ratio R: 0.006
[1]; [7]
  Evaluation of macrophage subtype identification: C (the compound cannot identify the subtypes (namely, the resolution R is less than 0.15))
[1]; [8]
  Evaluation of macrophage subtype identification: C (the compound cannot identify the subtypes (namely, the resolution R is less than 0.15))
[1]; class based on resolution R, general formula (11) dyes (Table 9)
  Evaluation of macrophage subtype identification: C (the compound cannot identify the subtypes (namely, the resolution R is less than 0.15))
[1]; [9]
  Peak position of M1 macrophage: 1.70
  Peak position of M2 macrophage: 1.86
[1]
  difference in the staining intensity between the M1 macrophages and the M2 macrophages / identification: no difference in the staining intensity
[1]; [10]
  Peak position of M1 macrophage: 1.70
[1]; [11]
  Peak position of M1 macrophage: 1.70
[1]; mouse bone marrow-derived M1 macrophages, channel listed per compound, general formula (11) dyes (Table 9)
  Peak position of M1 macrophage: 1.70
[1]; [12]
  Peak position of M2 macrophage: 1.86
[1]; [13]
  Peak position of M2 macrophage: 1.86
[1]; mouse bone marrow-derived M2 macrophages, channel listed per compound, general formula (11) dyes (Table 9)
  Peak position of M2 macrophage: 1.86
[1]; rated from resolution R
  Evaluation of macrophage subtype identification: C (the compound cannot identify the subtypes (namely, the resolution R is less than 0.15))
[1]; general formula (6) dyes (Table 7)
  Selectivity: No
[1]; general formula (10) dyes (Table 8)
  Selectivity: No
[2]
  difference in the staining intensity between the M1 macrophages and the M2 macrophages / identification: no difference in the staining intensity

## COc1ccc(N2c3ccc(/C=C4\C(=O)NC(=O)C(C#N)=C4C)cc3C3CCCC32)cc1 (stereo not shown) [(2), reference compound]
[1]; [6]
  Resolution ratio R: 0.007
[1]; [9]
  Peak position of M1 macrophage: 0.86
  Peak position of M2 macrophage: 1.05
[1]
  difference in the staining intensity between the M1 macrophages and the M2 macrophages / identification: no difference in the staining intensity
[1]; rated from resolution R
  Evaluation of macrophage subtype identification: C (the compound cannot identify the subtypes (namely, the resolution R is less than 0.15))
[2]
  difference in the staining intensity between the M1 macrophages and the M2 macrophages / identification: no difference in the staining intensity

## O=C(O)CN1C(=O)/C(=C\c2cc(Br)c3c(c2)C2CCCC2N3c2ccc(Br)cc2)SC1=S (stereo not shown) [(12)]
[1]; [6]
  Resolution ratio R: 0.594
[1]; [9]
  Peak position of M1 macrophage: 50.7
  Peak position of M2 macrophage: 97.7
[1]; rated from resolution R
  Evaluation of macrophage subtype identification: A (The compound is very good in the subtype identification (namely, the resolution R is 0.5 or more))
[2]
  Resolution ratio R: 0.276
  Evaluation of macrophage subtype identification: B (the compound is good in the subtype identification (namely, the resolution R is 0.15 or more and less than 0.5))
  Peak position of M1 macrophage: 37.4
  Peak position of M2 macrophage: 46.5
  Selectivity: M2

## CCN1c2ccc(/C=C3/SC(=S)N(CCC(=O)O)C3=O)cc2C2CCCC21 (stereo not shown) [(15)]
[1]; [6]
  Resolution ratio R: 0.700
[1]; [9]
  Peak position of M1 macrophage: 7.52
  Peak position of M2 macrophage: 10.5
[1]; rated from resolution R
  Evaluation of macrophage subtype identification: A (The compound is very good in the subtype identification (namely, the resolution R is 0.5 or more))
[2]
  Resolution ratio R: 0.216
  Evaluation of macrophage subtype identification: B (the compound is good in the subtype identification (namely, the resolution R is 0.15 or more and less than 0.5))
  Peak position of M1 macrophage: 5.62
  Peak position of M2 macrophage: 7.4
  Selectivity: M2

## O=C(O)CCN1C(=O)/C(=C\c2ccc3c(c2)C2CCCC2N3Cc2ccccc2)SC1=S (stereo not shown) [compound (3)]
[1]; [6]
  Resolution ratio R: 0.622
[1]; [9]
  Peak position of M1 macrophage: 11.2
  Peak position of M2 macrophage: 25.0
[1]; rated from resolution R
  Evaluation of macrophage subtype identification: A (The compound is very good in the subtype identification (namely, the resolution R is 0.5 or more))
[2]
  Resolution ratio R: 0.257
  Evaluation of macrophage subtype identification: B (the compound is good in the subtype identification (namely, the resolution R is 0.15 or more and less than 0.5))
  Peak position of M1 macrophage: 9.63
  Peak position of M2 macrophage: 12.3
  Selectivity: M2

## COC(=O)CCC(C(=O)OC)N1C(=O)/C(=C\c2ccc3c(c2)C2CCCC2N3c2ccc(OC)cc2)SC1=S (stereo not shown) [compound (4)]
[1]; [6]
  Resolution ratio R: 1.125
[1]; [9]
  Peak position of M1 macrophage: 158
  Peak position of M2 macrophage: 45.4
[1]; rated from resolution R
  Evaluation of macrophage subtype identification: A (The compound is very good in the subtype identification (namely, the resolution R is 0.5 or more))
[2]
  Resolution ratio R: 0.372
  Evaluation of macrophage subtype identification: B (the compound is good in the subtype identification (namely, the resolution R is 0.15 or more and less than 0.5))
  Peak position of M1 macrophage: 26.5
  Peak position of M2 macrophage: 17.9
  Selectivity: M1

## CC1(C)C(/C=C/C=C/C=C/C=C2\N(CCCCS(=O)(=O)[O-])c3ccc4ccccc4c3C2(C)C)=[N+](CCCCS(=O)(=O)[O-])c2ccc3ccccc3c21.[Na+] [compound (86)]
[3]
  sorting of identified M1 and M2 macrophages: could be each sorted with an FACS apparatus
  subtype more strongly stained: stain the M2 macrophages more strongly than the M1 macrophages
[1]; [4]
  Resolution ratio R: 0.602
[1]; [7]
  Evaluation of macrophage subtype identification: A (The compound is very good in the subtype identification (namely, the resolution R is 0.5 or more))
[1]; [10]
  Peak position of M1 macrophage: 2.27
[1]; [12]
  Peak position of M2 macrophage: 6.37

## CCN(CC)c1ccc2cc(-c3nc4cc(Cl)ccc4o3)c(=O)oc2c1 [compound (120)]
[3]
  sorting of identified M1 and M2 macrophages: could be each sorted with an FACS apparatus
  subtype more strongly stained: stain the M1 macrophages more strongly than the M2 macrophages
[1]; [5]
  Resolution ratio R: 0.676
[1]; [8]
  Evaluation of macrophage subtype identification: A (The compound is very good in the subtype identification (namely, the resolution R is 0.5 or more))
[1]; [11]
  Peak position of M1 macrophage: 10.1
[1]; [13]
  Peak position of M2 macrophage: 5.60
[1]; two compounds used in combination, each 1 μM
  subtype more strongly stained: more strongly stain the M1 macrophages than the M2 macrophages
[2]; THP-1 derived M1 and M2
  subtype more strongly stained: the M1 macrophages were stained more strongly by the compound (120) than the M2 macrophages
